Measured values published in ChEMBL document CHEMBL3045696, “CsFCelite catalyzed facile N-alkylation of 2(3H)-benzoxazolones and antimicrobial properties of 2-substituted benzoxazole and 3-substituted-2(3H)-benzoxazolone derivatives” (2011).
Values after ≈ are worked out from the molar mass of the structure shown. Active and inactive are the calls of the source. No cut-off for these calls is given here.

Tests used:
Assay type in all cases: functional
[1] = tested on: Escherichia coli; test: Antimicrobial activity against Escherichia coli MTCC 443 by broth dilution method
[2] = tested on: Saccharomyces cerevisiae; test: Antimicrobial activity against Saccharomyces cerevisiae MTCC 36 at 150 ug after 48 hr by agar well diffusion method; conditions: for zone of inhibition at 150 µg/disc: MTCC 36, 48 h, read-out: IZ
[3] = tested on: Staphylococcus epidermidis; test: Antimicrobial activity against Staphylococcus epidermidis by broth dilution method
[4] = tested on: Klebsiella pneumoniae; test: Antimicrobial activity against Klebsiella pneumoniae MTCC 618 by broth dilution method
[5] = tested on: Rhizopus arrhizus; test: Antimicrobial activity against Rhizopus oryzae MTCC 262 at 100 ug after 48 hr by agar well diffusion method; conditions: for zone of inhibition at 100 µg/disc: MTCC 262, 48 h, read-out: IZ
[6] = tested on: Staphylococcus aureus; test: Antimicrobial activity against Staphylococcus aureus MTCC 96 by broth dilution method
[7] = tested on: Candida albicans; test: Antimicrobial activity against Candida albicans MTCC 227 at 150 ug after 48 hr by agar well diffusion method; conditions: for zone of inhibition at 150 µg/disc: MTCC 227, 48 h, read-out: IZ
[8] = tested on: Saccharomyces cerevisiae; test: Antimicrobial activity against Saccharomyces cerevisiae MTCC 36 at 100 ug after 48 hr by agar well diffusion method; conditions: for zone of inhibition at 100 µg/disc: MTCC 36, 48 h, read-out: IZ
[9] = tested on: Candida albicans; test: Antimicrobial activity against Candida albicans MTCC 227 at 100 ug after 48 hr by agar well diffusion method; conditions: for zone of inhibition at 100 µg/disc: MTCC 227, 48 h, read-out: IZ
[10] = tested on: Pseudomonas aeruginosa; test: Antimicrobial activity against Pseudomonas aeruginosa MTCC 741 by broth dilution method
[11] = tested on: Bacillus subtilis; test: Antimicrobial activity against Bacillus subtilis MTCC 441 by broth dilution method
[12] = tested on: Aspergillus niger; test: Antimicrobial activity against Aspergillus niger MTCC 282 at 100 ug after 48 hr by agar well diffusion method; conditions: for zone of inhibition at 100 µg/disc: MTCC 282, 48 h, read-out: IZ
[13] = tested on: Aspergillus niger; test: Antimicrobial activity against Aspergillus niger MTCC 282 at 150 ug after 48 hr by agar well diffusion method; conditions: for zone of inhibition at 150 µg/disc: MTCC 282, 48 h, read-out: IZ
[14] = tested on: Rhizopus arrhizus; test: Antimicrobial activity against Rhizopus oryzae MTCC 262 at 150 ug after 48 hr by agar well diffusion method; conditions: for zone of inhibition at 150 µg/disc: MTCC 262, 48 h, read-out: IZ
[15] = tested on: Saccharomyces cerevisiae; test: Antimicrobial activity against Saccharomyces cerevisiae MTCC 36 at 50 ug after 48 hr by agar well diffusion method; conditions: MTCC 36, 48 h, read-out: IZ
[16] = tested on: Candida albicans; test: Antimicrobial activity against Candida albicans MTCC 227 at 50 ug after 48 hr by agar well diffusion method; conditions: MTCC 227, 48 h, read-out: IZ
[17] = tested on: Rhizopus arrhizus; test: Antimicrobial activity against Rhizopus oryzae MTCC 262 at 50 ug after 48 hr by agar well diffusion method; conditions: MTCC 262, 48 h, read-out: IZ
[18] = tested on: Aspergillus niger; test: Antimicrobial activity against Aspergillus niger MTCC 282 at 50 ug after 48 hr by agar well diffusion method; conditions: MTCC 282, 48 h, read-out: IZ

Structure (SMILES)	MIC [1] [µg/mL]	MIC [3] [µg/mL]	MIC [4] [µg/mL]	Activity [5]	MIC [6] [µg/mL]	MIC [10] [µg/mL]	MIC [11] [µg/mL]	Activity [14]	Activity [2]	Activity [7]	Activity [8]	Activity [9]	Activity [12]	Activity [13]	zone of inhibition at 100 µg/disc [5] [mm]	zone of inhibition at 150 µg/disc [14] [mm]	further results
CCN1CCN(c2nc3ccccc3o2)CC1	150 (≈ 649 µM)	75 (≈ 324 µM)	75 (≈ 324 µM)	inactive	150 (≈ 649 µM)	150 (≈ 649 µM)	150 (≈ 649 µM)	inactive									zone of inhibition at 150 µg/disc [2]: 9 mm; zone of inhibition at 150 µg/disc [7]: 10 mm; zone of inhibition at 100 µg/disc [8]: 7 mm; zone of inhibition at 100 µg/disc [9]: 8 mm; zone of inhibition at 100 µg/disc [12]: 9 mm; zone of inhibition at 150 µg/disc [13]: 12 mm
OCCN1CCN(c2nc3ccccc3o2)CC1	150 (≈ 607 µM)	150 (≈ 607 µM)	75 (≈ 303 µM)	inactive	75 (≈ 303 µM)	75 (≈ 303 µM)	150 (≈ 607 µM)	inactive	inactive	inactive	inactive	inactive	inactive	inactive			
c1ccc2oc(N3CCCNCC3)nc2c1	75 (≈ 345 µM)	150 (≈ 690 µM)	75 (≈ 345 µM)		150 (≈ 690 µM)	75 (≈ 345 µM)	150 (≈ 690 µM)		inactive	inactive	inactive	inactive	inactive	inactive	8	10	
C[C@@H]1[C@H](O)[C@@H](C)/C=C/C=C/C=C/C=C/C=C/C=C/C=C/[C@H](O[C@@H]2O[C@H](C)[C@@H](O)[C@H](N)[C@@H]2O)C[C@@H]2O[C@](O)(C[C@@H](O)C[C@@H](O)[C@H](O)CC[C@@H](O)C[C@@H](O)CC(=O)O[C@H]1C)C[C@H](O)[C@H]2C(=O)O [AMPHOTERICIN B]																	zone of inhibition at 50 µg/disc [15]: 22 mm; zone of inhibition at 50 µg/disc [16]: 23.5 mm; zone of inhibition at 50 µg/disc [17]: 24 mm; zone of inhibition at 50 µg/disc [18]: 25 mm
CN1CCN(c2nc3ccccc3o2)CC1	150 (≈ 690 µM)	75 (≈ 345 µM)	150 (≈ 690 µM)	inactive	150 (≈ 690 µM)	150 (≈ 690 µM)	150 (≈ 690 µM)	inactive	inactive	inactive	inactive	inactive	inactive	inactive			
c1ccc2oc(N3CCCCC3)nc2c1	150 (≈ 742 µM)	150 (≈ 742 µM)	150 (≈ 742 µM)		150 (≈ 742 µM)	150 (≈ 742 µM)	150 (≈ 742 µM)								8	11	zone of inhibition at 150 µg/disc [2]: 12 mm; zone of inhibition at 150 µg/disc [7]: 12 mm; zone of inhibition at 100 µg/disc [8]: 9 mm; zone of inhibition at 100 µg/disc [9]: 9 mm; zone of inhibition at 100 µg/disc [12]: 8 mm; zone of inhibition at 150 µg/disc [13]: 10 mm
C=CCCn1c(=O)oc2ccc(Cl)cc21	150 (≈ 671 µM)	150 (≈ 671 µM)	37.5 (≈ 168 µM)		150 (≈ 671 µM)	150 (≈ 671 µM)	150 (≈ 671 µM)		inactive	inactive	inactive	inactive	inactive	inactive	9	13	
